Measured values taken from patent US10258041B2, “Substituted pyrazolylpyrazole derivative and use of same as herbicide” (KYOYU AGRI CO., LTD., priority 2015, dated 2019).

How the values were obtained:
Format in all cases: in vivo
Amaranthus retroflexus [1] = assay: Weed foliar treatment test (Test 3); conditions: foliar spray at 1.0 to 2.0 leaf stage of Digitaria ciliaris, 3 weeks, 25° C.
Protocol: (§1) Evaluation of herbicidal efficacy was carried out by comparing growth inhibition rate (%) with an untreated group, while evaluation of chemical damage was carried out by comparing growth inhibition rate (%) with the state of a complete eradication group, and were evaluated at 11 levels indicated below. • 0 (exponent): 0% to less than 10% (growth inhibition rate) • 1: 10% to less than 20% • 2: 20% to less than 30% • 3: 30% to less than 40% • 4: 40% to less than 50% • 5: 50% to less than 60% • 6: 60% to less than 70% • 7: 70% to less than 80% • 8: 80% to less than 90% • 9: 90% to less than 100% • 10: 100% Soil was filled into a 1/6000 are pot followed by seeding with Digitaria ciliaris, Chenopodium album and Amaranthus retroflexus, covering with soil, and cultivating in a glass greenhouse at an average atmospheric temperature of 25° C. Wettable powders of Target Compound (I) shown in Table 1 prepared in compliance with the preparation examples were diluted with water to the prescribed amount of chemical and uniformly sprayed onto the weeds using 150 liters of sprayed water per 10 are when Digitaria ciliaris had grown to the 1.0 to 2.0 leaf stage. After treating for 3 weeks in a glass greenhouse at an average atmospheric temperature of 25° C., the herbicidal efficacy thereof was investigated. Evaluation of herbicidal efficacy was carried out in the same manner as the above-mentioned Test Example 1.

Chenopodium album [2] = assay: Weed foliar treatment test (Test 3); conditions: foliar spray at 1.0 to 2.0 leaf stage of Digitaria ciliaris, 3 weeks, 25° C.
Protocol: as §1

Digitaria ciliaris [3] = assay: Weed foliar treatment test (Test 3); conditions: foliar spray at 1.0 to 2.0 leaf stage of Digitaria ciliaris, 3 weeks, 25° C.
Protocol: as §1

Galinsoga parviflora = assay: Weed foliar treatment test (Test 4, higher leaf stage); conditions: 10 g a.i./10a; foliar spray at 4.0 to 5.0 leaf stage of Digitaria ciliaris; 20 days, 25° C.
Protocol: (§2) Evaluation of herbicidal efficacy was carried out by comparing growth inhibition rate (%) with an untreated group, while evaluation of chemical damage was carried out by comparing growth inhibition rate (%) with the state of a complete eradication group, and were evaluated at 11 levels indicated below. • 0 (exponent): 0% to less than 10% (growth inhibition rate) • 1: 10% to less than 20% • 2: 20% to less than 30% • 3: 30% to less than 40% • 4: 40% to less than 50% • 5: 50% to less than 60% • 6: 60% to less than 70% • 7: 70% to less than 80% • 8: 80% to less than 90% • 9: 90% to less than 100% • 10: 100% Field soil was filled into a 1/4500 are pot followed by seeding with Digitaria ciliaris and Galinsoga parviflora, covering with soil and cultivating in a glass greenhouse at an average atmospheric temperature of 25° C. Wettable powders of Target Compound (I) shown, in Table 1 prepared in compliance with the preparation examples were diluted with water to the prescribed amount of chemical and uniformly sprayed onto the weeds using 100 liters of sprayed water per 10 are when Digitaria ciliaris had grown to the 4.0 to 5.0 leaf stage (plant height: 10 cm to 15 cm). After treating for 20 days in a glass greenhouse at an average atmospheric temperature of 25° C., the herbicidal efficacy thereof was investigated. Evaluation of herbicidal efficacy was carried out in the same manner as the above-mentioned Test Example 1.

Digitaria ciliaris [4] = assay: as above; conditions: 10 g a.i./10a; foliar spray at 4.0 to 5.0 leaf stage of Digitaria ciliaris (plant height 10 cm to 15 cm); 20 days, 25° C.
Protocol: as §2

Amaranthus retroflexus [5] = assay: Farming soil treatment test; conditions: soil surface spray prior to weed growth, 30 days, 30° C.
Protocol: (§3) Evaluation of herbicidal efficacy was carried out by comparing growth inhibition rate (%) with an untreated group, while evaluation of chemical damage was carried out by comparing growth inhibition rate (%) with the state of a complete eradication group, and were evaluated at 11 levels indicated below. • 0 (exponent): 0% to less than 10% (growth inhibition rate) • 1: 10% to less than 20% • 2: 20% to less than 30% • 3: 30% to less than 40% • 4: 40% to less than 50% • 5: 50% to less than 60% • 6: 60% to less than 70% • 7: 70% to less than 80% • 8: 80% to less than 90% • 9: 90% to less than 100% • 10: 100% Field soil was filled into a 1/6000 are pot followed by seeding with Digitaria ciliaris, Chenopodium album and Amraranthus retroflexus and covering with soil. Wettable powders of compounds of formula (I) shown in Table 1 prepared in compliance with the preparation examples were diluted with water to the prescribed amount of chemical and uniformly sprayed onto each soil surface layer using 100 liters of sprayed water per 10 are prior to weed growth following seeding. After treating for 30 days in a glass greenhouse at an average atmospheric temperature of 30° C., the herbicidal efficacy thereof was investigated. Evaluation of herbicidal efficacy was carried out in the same manner as the above-mentioned Test Example 1,

Chenopodium album [6] = assay: Farming soil treatment test; conditions: soil surface spray prior to weed growth, 30 days, 30° C.
Protocol: as §3

Digitaria ciliaris [7] = assay: Farming soil treatment test; conditions: soil surface spray prior to weed growth, 30 days, 30° C.
Protocol: as §3

Monochoria vaginalis = assay: Paddy herbicidal activity test; conditions: irrigated pot, treated at 3.5 leaf stage of Echinochloa crus-galli, 30 days
Protocol: (§4) Rice paddy soil was filled into a 1/10000 are pot followed by the addition of suitable amounts of water and chemical fertilizer, kneading, seeding with Echinochloa crus-galli, Monochoria vaginalis and Scirpus juncoides and maintaining in an irrigated state at a water depth of 3 cm. Wettable powders of Target Compound (I) shown in Table 1 prepared in compliance with the preparation examples were diluted with a suitable amount of water, rice plants in the 2.0 leaf stage were transplanted during 3.5 leaf stage of Echinochloa crus-galli, and treated by dropping in chemical in the prescribed amount per 10 are using a pipette. After treating for 30 days in a glass greenhouse at an average atmospheric temperature of […], the herbicidal efficacy thereof was investigated. Evaluation of herbicidal efficacy was carried out by comparing growth inhibition rate (%) with an untreated group, while evaluation of chemical damage was carried out by comparing growth inhibition rate (%) with the state of a complete eradication group, and were evaluated at 11 levels indicated below. • 0 (exponent): 0% to less than 10% (growth inhibition rate) • 1: 10% to less than 20% • 2: 20% to less than 30% • 3: 30% to less than 40% • 4: 40% to less than 50% • 5: 50% to less than 60% • 6: 60% to less than 70% • 7: 70% to less than 80% • 8: 80% to less than 90% • 9: 90% to less than 100% • 10: 100%

Scirpus juncoides = assay: Paddy herbicidal activity test; conditions: irrigated pot, treated at 3.5 leaf stage of Echinochloa crus-galli, 30 days
Protocol: as §4

Echinochloa crus-galli = assay: Paddy herbicidal activity test; conditions: irrigated pot, treated at 3.5 leaf stage of Echinochloa crus-galli, 30 days
Protocol: as §4

Oryza sativa = assay: Paddy herbicidal activity test, chemical damage to transplanted rice; conditions: rice transplanted in 2.0 leaf stage, 30 days
Protocol: as §4

## N#Cc1cnn(-c2nn3c(c2Cl)CCCC3)c1NC(=O)CCl [Control Agent 1.9]
Amaranthus retroflexus [1]; 5 g a.i./10a
  herbicidal efficacy (growth inhibition rate level), Amaranthus retroflexus: 6 (6: 60% to less than 70%)
Amaranthus retroflexus [1]; 10 g a.i./10a
  herbicidal efficacy (growth inhibition rate level), Amaranthus retroflexus: 6 (6: 60% to less than 70%)
Chenopodium album [2]; 5 g a.i./10a
  herbicidal efficacy (growth inhibition rate level), Chenopodium album: 1 (1: 10% to less than 20%)
Chenopodium album [2]; 10 g a.i./10a
  herbicidal efficacy (growth inhibition rate level), Chenopodium album: 2 (2: 20% to less than 30%)
Digitaria ciliaris [3]; 5 g a.i./10a
  herbicidal efficacy (growth inhibition rate level), Digitaria ciliaris: 2 (2: 20% to less than 30%)
Digitaria ciliaris [3]; 10 g a.i./10a
  herbicidal efficacy (growth inhibition rate level), Digitaria ciliaris: 2 (2: 20% to less than 30%)
Galinsoga parviflora
  herbicidal efficacy (growth inhibition rate level), Galinsoga parviflora: 5 (5: 50% to less than 60%)
Digitaria ciliaris [4]
  herbicidal efficacy (growth inhibition rate level), Digitaria ciliaris: 1 (1: 10% to less than 20%)
Amaranthus retroflexus [5]; 5 g a.i./10a
  herbicidal efficacy (growth inhibition rate level), Amaranthus retroflexus: 5 (5: 50% to less than 60%)
Amaranthus retroflexus [5]; 10 g a.i./10a
  herbicidal efficacy (growth inhibition rate level), Amaranthus retroflexus: 6 (6: 60% to less than 70%)
Chenopodium album [6]; 5 g a.i./10a
  herbicidal efficacy (growth inhibition rate level), Chenopodium album: 1 (1: 10% to less than 20%)
Chenopodium album [6]; 10 g a.i./10a
  herbicidal efficacy (growth inhibition rate level), Chenopodium album: 2 (2: 20% to less than 30%)
Digitaria ciliaris [7]; 5 g a.i./10a
  herbicidal efficacy (growth inhibition rate level), Digitaria ciliaris: 0 (0 (exponent): 0% to less than 10% (growth inhibition rate))
Digitaria ciliaris [7]; 10 g a.i./10a
  herbicidal efficacy (growth inhibition rate level), Digitaria ciliaris: 1 (1: 10% to less than 20%)
Monochoria vaginalis; 1 g a.i./10a
  herbicidal efficacy (growth inhibition rate level), Monochoria vaginalis: 2 (2: 20% to less than 30%)
Monochoria vaginalis; 5 g a.i./10a
  herbicidal efficacy (growth inhibition rate level), Monochoria vaginalis: 2 (2: 20% to less than 30%)
Scirpus juncoides; 1 g a.i./10a
  herbicidal efficacy (growth inhibition rate level), Scirpus juncoides: 0 (0 (exponent): 0% to less than 10% (growth inhibition rate))
Scirpus juncoides; 5 g a.i./10a
  herbicidal efficacy (growth inhibition rate level), Scirpus juncoides: 1 (1: 10% to less than 20%)
Echinochloa crus-galli; 1 g a.i./10a
  herbicidal efficacy (growth inhibition rate level), Echinochloa crus-galli: 2 (2: 20% to less than 30%)
Echinochloa crus-galli; 5 g a.i./10a
  herbicidal efficacy (growth inhibition rate level), Echinochloa crus-galli: 2 (2: 20% to less than 30%)
Oryza sativa; 1 g a.i./10a
  chemical damage (growth inhibition rate level), Oryza sativa: 1 (1: 10% to less than 20%)
Oryza sativa; 5 g a.i./10a
  chemical damage (growth inhibition rate level), Oryza sativa: 1 (1: 10% to less than 20%)
